The target in data set [1] is T1, Human recombinant PDE10A (hPDE10A) (Homo sapiens, UniProt Q9Y233).
T1 construct: His tag (inferred from metal chelate purification); made in house; host or cells: Sf9 insect cells (baculovirus)
Description: In vitro assay PDE10A, human clone (SPA, 3H-cAMP hydrolysis). It is filed as biochemical. The gist of the method: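 Human recombinant PDE10A was expressed in Sf9 cells via baculovirus and incubated with compound in 50 mM Tris pH 7.8, 8.3 mM MgCl2, 1.7 mM EGTA. Substrate was 60 nM cAMP plus 0.008 μCi 3H-cAMP for 60 min at room temperature, read by SPA scintillation counting. Controls used 1% DMSO, and blanks omitted enzyme.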

The target of data set [2] is T2, Human recombinant PDE2A (hPDE2A) (Homo sapiens, UniProt O00408).
T2 construct: His tag (inferred from metal chelate purification); made in house; host or cells: Sf9 insect cells (baculovirus)
Description: In vitro assay PDE2A (SPA, 3H-cGMP hydrolysis). To be noted: for Emax: read-out: hPDE2A Emax; for IC50: read-out: hPDE2A pIC50 (converted). Type of data set: biochemical.

In data set [3] the target is T3, Human recombinant PDE3A (hPDE3A) (Homo sapiens, UniProt Q14432).
T3 construct: purchased Scottish Biomedical; host or cells: Sf9 insect cells
The experiment in a line: In vitro assay PDE3A (SPA, 3H-cAMP hydrolysis).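 As to all read-outs here: the method names PDE3A and the table heading PDE3B.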 Type of data set: biochemical. To be noted: for IC50: hPDE3B pIC50, read-out: pIC50 (converted); for Emax: read-out: hPDE3B Emax, read-out: Emax. The gist of the method: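 Human PDE3A, cloned from brain, as partially purified Sf9 lysate. Substrate 0.4 μM cAMP plus [3H]-cAMP (2.4 μCi/ml final) in 50 mM Tris pH 7.8, 8.3 mM MgCl2, 1.7 mM EGTA, 60 min at room temperature, 1% DMSO final. Hydrolysis read by SPA scintillation counting against no-enzyme blanks and DMSO controls.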

Where [4] appears, read: human clone by default (no (r) mark), read-out: hPDE10A2 or rPDE10A2 Emax.
[5] abbreviates: human clone by default (no (r) mark), read-out: hPDE10A2 or rPDE10A2 pIC50 (converted).
The mark [6] stands for this setting: human clone (h), default, read-out: hPDE10A2 Emax.
The mark [7] stands for this setting: human clone (h), default, read-out: hPDE10A2 pIC50 (converted).
The mark [8] stands for this setting: hPDE2A pIC50, human recombinant PDE2A, 10 μM cGMP substrate.
The mark [9] stands for this setting: human recombinant PDE2A, 10 μM cGMP substrate.

From patent publication US10947242B2, “[1,2,4]triazolo[1,5and#8208;A]pyrimidine compounds as PDE2 inhibitors” (Janssen Pharmaceutica NV, priority 2016, dated 2021) come the findings set out here.

pIC50: −log10 of the molar value. Read-outs that look alike come from different tables or passages of the source.

T2 sequence (O00408 whole entry): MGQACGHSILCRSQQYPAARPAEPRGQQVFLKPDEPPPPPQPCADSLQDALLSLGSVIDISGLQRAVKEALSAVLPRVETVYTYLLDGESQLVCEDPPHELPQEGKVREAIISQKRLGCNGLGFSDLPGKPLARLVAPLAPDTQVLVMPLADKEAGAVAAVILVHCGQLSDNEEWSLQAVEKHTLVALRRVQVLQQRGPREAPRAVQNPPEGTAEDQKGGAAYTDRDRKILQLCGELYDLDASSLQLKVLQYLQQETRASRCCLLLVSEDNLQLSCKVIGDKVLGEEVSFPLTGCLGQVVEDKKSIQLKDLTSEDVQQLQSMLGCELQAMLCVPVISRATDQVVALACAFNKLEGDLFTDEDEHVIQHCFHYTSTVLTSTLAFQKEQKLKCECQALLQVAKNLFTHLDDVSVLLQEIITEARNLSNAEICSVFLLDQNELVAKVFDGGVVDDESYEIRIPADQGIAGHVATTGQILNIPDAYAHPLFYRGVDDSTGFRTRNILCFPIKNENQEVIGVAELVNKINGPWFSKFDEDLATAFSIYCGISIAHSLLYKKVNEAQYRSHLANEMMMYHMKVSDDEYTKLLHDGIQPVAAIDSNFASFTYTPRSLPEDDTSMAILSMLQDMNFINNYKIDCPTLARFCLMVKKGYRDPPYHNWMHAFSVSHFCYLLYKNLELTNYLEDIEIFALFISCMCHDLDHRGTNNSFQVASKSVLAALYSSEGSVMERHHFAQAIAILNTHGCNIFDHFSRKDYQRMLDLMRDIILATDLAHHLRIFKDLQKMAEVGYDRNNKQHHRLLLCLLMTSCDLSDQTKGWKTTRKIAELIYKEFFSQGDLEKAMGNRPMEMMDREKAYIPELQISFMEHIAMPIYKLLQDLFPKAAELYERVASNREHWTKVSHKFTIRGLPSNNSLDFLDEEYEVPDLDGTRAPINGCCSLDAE
T3 sequence (Q14432 whole entry): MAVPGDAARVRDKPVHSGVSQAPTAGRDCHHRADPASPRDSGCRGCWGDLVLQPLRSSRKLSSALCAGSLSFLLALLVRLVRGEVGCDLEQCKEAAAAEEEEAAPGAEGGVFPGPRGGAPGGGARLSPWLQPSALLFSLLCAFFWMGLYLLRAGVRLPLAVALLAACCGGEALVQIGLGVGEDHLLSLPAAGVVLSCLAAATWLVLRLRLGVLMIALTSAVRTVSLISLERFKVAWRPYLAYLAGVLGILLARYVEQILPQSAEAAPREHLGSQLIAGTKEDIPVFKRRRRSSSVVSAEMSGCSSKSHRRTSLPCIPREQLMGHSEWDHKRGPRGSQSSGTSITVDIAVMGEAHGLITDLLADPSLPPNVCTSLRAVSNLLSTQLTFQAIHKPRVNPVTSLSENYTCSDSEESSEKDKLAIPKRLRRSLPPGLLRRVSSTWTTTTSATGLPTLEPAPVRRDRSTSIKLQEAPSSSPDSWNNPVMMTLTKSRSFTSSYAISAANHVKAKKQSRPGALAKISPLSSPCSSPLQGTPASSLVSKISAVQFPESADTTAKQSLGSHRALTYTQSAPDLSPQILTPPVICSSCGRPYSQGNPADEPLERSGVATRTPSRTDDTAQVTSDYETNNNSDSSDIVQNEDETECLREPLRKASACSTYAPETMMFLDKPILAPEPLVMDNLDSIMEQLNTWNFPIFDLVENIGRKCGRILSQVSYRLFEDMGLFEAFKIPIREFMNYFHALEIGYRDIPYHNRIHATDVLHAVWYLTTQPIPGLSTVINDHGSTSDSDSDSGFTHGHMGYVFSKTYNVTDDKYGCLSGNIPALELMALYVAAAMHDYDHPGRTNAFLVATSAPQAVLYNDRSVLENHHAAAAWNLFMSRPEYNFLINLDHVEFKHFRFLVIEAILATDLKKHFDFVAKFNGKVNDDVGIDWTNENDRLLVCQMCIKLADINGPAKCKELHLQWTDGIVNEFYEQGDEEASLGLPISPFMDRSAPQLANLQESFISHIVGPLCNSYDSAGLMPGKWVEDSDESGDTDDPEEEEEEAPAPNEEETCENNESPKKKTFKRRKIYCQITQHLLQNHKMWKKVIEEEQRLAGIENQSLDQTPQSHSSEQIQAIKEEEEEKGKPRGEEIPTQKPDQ
T1 sequence (Q9Y233 267-1055): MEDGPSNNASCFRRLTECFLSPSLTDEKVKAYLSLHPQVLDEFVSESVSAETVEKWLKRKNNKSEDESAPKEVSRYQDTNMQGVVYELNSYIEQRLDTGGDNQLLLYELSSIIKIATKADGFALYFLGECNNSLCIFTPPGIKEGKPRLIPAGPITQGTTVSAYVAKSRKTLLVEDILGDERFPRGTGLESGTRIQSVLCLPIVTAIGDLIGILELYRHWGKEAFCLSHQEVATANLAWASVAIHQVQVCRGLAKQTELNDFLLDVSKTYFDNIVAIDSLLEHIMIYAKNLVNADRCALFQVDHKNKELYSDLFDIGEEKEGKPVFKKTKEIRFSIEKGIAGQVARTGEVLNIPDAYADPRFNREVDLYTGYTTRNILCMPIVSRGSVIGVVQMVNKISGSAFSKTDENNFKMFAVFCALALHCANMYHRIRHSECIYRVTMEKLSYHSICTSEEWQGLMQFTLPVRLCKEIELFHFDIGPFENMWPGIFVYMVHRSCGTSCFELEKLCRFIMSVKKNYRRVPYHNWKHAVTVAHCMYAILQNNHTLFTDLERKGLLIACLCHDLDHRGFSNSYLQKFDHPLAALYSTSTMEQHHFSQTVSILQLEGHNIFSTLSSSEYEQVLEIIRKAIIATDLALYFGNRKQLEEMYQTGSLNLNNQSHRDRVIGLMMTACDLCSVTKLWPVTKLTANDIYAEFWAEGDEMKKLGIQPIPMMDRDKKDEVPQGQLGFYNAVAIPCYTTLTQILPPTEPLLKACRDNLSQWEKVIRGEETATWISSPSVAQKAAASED

Take `COc1ccc(C(=O)N2[C@H]3CC[C@H](c4cc(C(F)F)nc5ncnn45)[C@@H]2CC3)cc1Cl` [Compound 376]: the melting point (in general, the temperature, or range, at which the solid turns liquid) was found to be 175.71 °C. Further, the Emax (usually the size of the effect at its maximum, as opposed to the concentration needed) in data set [1] (setting [4]) is 97%. For the same compound, the IC50 in data set [1] (setting [5]) was 0.309 µM. In addition, in data set [2], the Emax stood at 101% and the IC50 is 0.00427 µM. In data set [3], the IC50 was 3.39 µM and the Emax was 79%.
In turn, `Cc1cc(C)cc(C(=O)N2CC[C@H](C)[C@@H](c3cc(C(F)F)nc4ncnn34)C2)c1` [Compound 214] showed a melting point of 203.97 °C. The Emax in data set [1] (setting [6]) worked out at 30%. The IC50 in data set [1] (setting [7]) is above 10 µM. Moreover, the Emax in data set [1] (setting [4]) is 30%. Also, the IC50 in data set [1] (setting [5]) is above 10 µM. Also, in data set [2] (hPDE2A pIC50), the pIC50 (in general, the negative decadic logarithm of the IC50, by convention in mol/L) was 5.20. The pIC50 in data set [2] (setting [8]) was 5.20. In addition, in data set [2], the Emax was found to be 9%. Also, in data set [3], the IC50 was above 10 µM and the Emax turned out to be 9%.
`C[C@@H]1CCN(C(=O)c2ccc3ncccc3c2)C[C@H]1c1cc(C(F)F)nc2ncnn12` [Compound 322]: the melting point was 180.27 °C. Further, the Emax in data set [1] (setting [4]) turned out to be 99%. In addition, the IC50 in data set [1] (setting [5]) was 0.0186 µM. For the same compound, in data set [2], the Emax was determined as 100% and the IC50 was 0.000501 µM. In data set [3], the IC50 was 0.479 µM and the Emax worked out at 95%.
`O=C(c1cn2ccsc2n1)N1[C@H]2CC[C@H](c3cc(C(F)F)nc4ncnn34)[C@@H]1CC2` [Compound 360]: the melting point worked out at 264.8 °C. For the same compound, the Emax in data set [1] (setting [4]) stood at 55%. In addition, in data set [1] (setting [5]), the IC50 was 6.92 µM. Besides, in data set [2], the Emax is 97% and the IC50 is 0.0407 µM. Also, in data set [3], the IC50 was 8.51 µM and the Emax was determined as 50%.
The compound `Cc1nn(C)cc1C(=O)N1CCC[C@](C)(c2cc(C(F)F)nc3ncnn23)C1` (single isomer, unassigned) [Compound 207] gave a melting point of 173.79 °C. Besides, the Emax in data set [1] (setting [6]) was -5%. For the same compound, the IC50 in data set [1] (setting [7]) is above 10 µM. The IC50 in data set [2] (setting [9]) was 7.94 µM. In data set [2] (human recombinant PDE2A), the Emax was 21%. In addition, in data set [2], the Emax came to 21% and the IC50 is 7.94 µM. For the same compound, in data set [3], the IC50 was above 10 µM and the Emax came to 2%.
Consider `O=C(c1ccc(F)c(Cl)c1)N1[C@H]2CC[C@H](c3cc(C(F)F)nc4ncnn34)[C@@H]1CC2` [Compound 377], for which the melting point is 183.67 °C. Moreover, in data set [1] (setting [4]), the Emax was found to be 89%. Moreover, the IC50 in data set [1] (setting [5]) was 1.29 µM. In data set [2], the Emax was 99% and the IC50 was 0.0178 µM. In addition, in data set [3], the IC50 was 9.77 µM and the Emax came to 47%.
In turn, `Cc1cc(C(=O)N2[C@H]3CC[C@H](c4cc(C(F)F)nc5ncnn45)[C@@H]2CC3)ccc1Cl` [Compound 375] registered a melting point of 171.51 °C. Further, the Emax in data set [1] (setting [4]) stood at 94%. Moreover, the IC50 in data set [1] (setting [5]) is 0.813 µM. In addition, in data set [2], the Emax is 101% and the IC50 was 0.00355 µM. In addition, in data set [3], the IC50 was 4.47 µM and the Emax was 73%.
The compound `C[C@@H]1CCN(C(=O)c2cnc3ccccc3c2)C[C@H]1c1cc(C(F)F)nc2ncnn12` [Compound 324] registered a melting point of 204.06 °C. The Emax in data set [1] (setting [4]) amounted to 100%. The IC50 in data set [1] (setting [5]) is 0.0661 µM. For the same compound, in data set [2], the Emax was found to be 100% and the IC50 is 0.000851 µM. In data set [3], the IC50 was 0.263 µM and the Emax was determined as 97%.
Compound `C[C@]1(c2cc(C(F)F)nc3ncnn23)CCCN(C(=O)c2ccc3occc3c2)C1` (single isomer, unassigned) [Compound 209] gave a melting point of 145.19 °C. In addition, the Emax in data set [1] (setting [6]) is 7%. The IC50 in data set [1] (setting [7]) was above 10 µM. For the same compound, the IC50 in data set [2] (setting [9]) was 0.724 µM. Besides, the Emax in data set [2] (human recombinant PDE2A) is 57%. Besides, in data set [2], the Emax is 57% and the IC50 was 0.724 µM. In data set [3], the IC50 was above 10 µM and the Emax came to 25%.
With `C[C@@H]1CCN(C(=O)c2cnc3c(Cl)cccc3c2)C[C@H]1c1cc(C(F)F)nc2ncnn12` [Compound 329], the melting point amounted to 227.79 °C. In addition, in data set [1] (setting [4]), the Emax amounted to 100%. In addition, the IC50 in data set [1] (setting [5]) was 0.0214 µM. In data set [2], the Emax turned out to be 100% and the IC50 was 0.00055 µM. In addition, in data set [3], the IC50 is 0.204 µM and the Emax turned out to be 95%.
As for `C[C@@H]1CCN(C(=O)c2ccc3c(ccn3C)c2)C[C@H]1c1cc(C(F)F)nc2ncnn12` [Compound 327], the melting point was 194.86 °C. Also, the Emax in data set [1] (setting [4]) stood at 100%. Further, the IC50 in data set [1] (setting [5]) was 0.0204 µM. In addition, in data set [2], the Emax came to 101% and the IC50 is 0.000417 µM. In data set [3], the IC50 is 0.0776 µM and the Emax is 99%.
`Cc1cc(C)nc(C(=O)N2CC[C@@H](C)[C@H](c3cc(C(F)F)nc4ncnn34)C2)c1` [Compound 137] showed a melting point of 229.91 °C. For the same compound, in data set [1] (setting [6]), the Emax stood at 84%. For the same compound, in data set [1] (setting [7]), the IC50 was 1.35 µM. In addition, the IC50 in data set [2] (setting [9]) is 0.0282 µM. The Emax in data set [2] (human recombinant PDE2A) was determined as 100%. Moreover, in data set [2], the Emax was found to be 100% and the IC50 was 0.0282 µM. In addition, in data set [3], the IC50 is above 10 µM and the Emax came to 35%.
Consider `C[C@@H]1CCN(C(=O)c2ccc(F)c(C(F)(F)F)c2)C[C@H]1c1cc(C(F)F)nc2ncnn12` [Compound 194], for which the melting point came to 167.52 °C. Further, the Emax in data set [1] (setting [6]) amounted to 97%. Also, the IC50 in data set [1] (setting [7]) is 0.263 µM. Moreover, the IC50 in data set [2] (setting [9]) was 0.0186 µM. Further, the Emax in data set [2] (human recombinant PDE2A) was found to be 99%. Besides, in data set [2], the Emax is 99% and the IC50 was 0.0186 µM. For the same compound, in data set [3], the IC50 is 4.57 µM and the Emax is 57%.
The compound `Cc1cc(C(=O)N2CC[C@@H](C)[C@H](c3cc(C)nc4ncnn34)C2)cc(C2CC2)n1` [Compound 23] registered a melting point of 169.13 °C. Also, the Emax in data set [1] (setting [6]) turned out to be 100%. The IC50 in data set [1] (setting [7]) is 0.00708 µM. For the same compound, the negative logarithm of the IC50 (pIC50) in data set [2] (hPDE2A pIC50) is 9.33. In addition, the negative logarithm of the IC50 (pIC50) in data set [2] (setting [8]) is 9.33. In addition, in data set [2], the Emax stood at 101%. Also, in data set [3], the IC50 is 1.05 µM and the Emax came out at 90%.
In the case of `CC(C)n1ccc2cc(C(=O)N3[C@H]4CC[C@H](c5cc(C(F)F)nc6ncnn56)[C@@H]3CC4)ccc21` [Compound 355], the melting point was determined as 146.08 °C. Moreover, in data set [1] (setting [4]), the Emax was found to be 98%. In addition, in data set [1] (setting [5]), the IC50 is 0.234 µM. Further, in data set [2], the Emax stood at 99% and the IC50 was 0.000933 µM. In data set [3], the IC50 is 0.724 µM and the Emax was 98%.
As for `O=C(c1cc(Cl)cc(Cl)c1)N1[C@H]2CC[C@H](c3cc(C(F)F)nc4ncnn34)[C@@H]1CC2` [Compound 333], the melting point came to 291.55 °C. The Emax in data set [1] (setting [4]) came out at 93%. In data set [1] (setting [5]), the IC50 was 0.708 µM. In data set [2], the Emax amounted to 99% and the IC50 is 0.00813 µM. For the same compound, in data set [3], the IC50 was 6.92 µM and the Emax turned out to be 63%.
Compound `Cc1csc(C(=O)N2CC[C@H](C)[C@@H](c3cc(C(F)F)nc4ncnn34)C2)c1` [Compound 213] displayed a melting point of 169.7 °C. In data set [1] (setting [6]), the Emax came out at 23%. Further, the IC50 in data set [1] (setting [7]) is above 10 µM. Besides, the IC50 in data set [2] (setting [9]) is 2.34 µM. Moreover, in data set [2] (human recombinant PDE2A), the Emax came to 28%. Further, in data set [2], the Emax stood at 28% and the IC50 is 2.34 µM. In data set [3], the IC50 is above 10 µM and the Emax came to 11%.
